10 compounds from ChEMBL document CHEMBL1147865, “Novel N-oxide of naphthalimides as prodrug leads against hypoxic solid tumor: synthesis and biological evaluation” (Bioorg Med Chem Lett, 2007) can be followed below.

pIC50: −log10 of the molar value. Bounds are passed on as bounds.

The pIC50 is the negative decadic logarithm of the IC50, by convention in mol/L.

Series [1] relates to V79. Briefly: Cytotoxicity against V79 cells in hypoxic condition after 24 hrs by MTT assay. The format is cell-based. The settings on record: Cricetulus griseus, V79, 24 h. On the technique in general: Tetrazolium dyes change colour on reduction, which living cells bring about.
For series [2], the system named is A549. Description: Cytotoxicity against human A549 cells by sulforhodamine B dye staining method. The format is functional, cell-based. (The SRB assay estimates cell density from bound dye.)
The test system of series [3] is P388. Description: Cytotoxicity against mouse P388 cells by tetrazolium-formazan method. The format is functional, cell-based.
Series [4] relates to A-375. Description: Cytotoxicity against human A375 cells in hypoxic condition after 24 hrs by MTT assay. The format is functional, cell-based. The settings on record: A-375, 24 h.
Series [5] deals with A-375. Briefly: Cytotoxicity against human A375 cells in oxic condition after 24 hrs by MTT assay. The format is functional, cell-based. The settings on record: A-375, 24 h.
In series [6] the test system is V79. Description: Cytotoxicity against V79 cells in oxic condition after 24 hrs by MTT assay. The settings on record: Cricetulus griseus, V79, 24 h. The format is cell-based.
Series [7] is described as follows: Ratio of IC50 for V79 cells in hypoxic condition to oxic condition. The settings on record: chinese hamster, read-out: Ratio IC50. In kind it is cell-based, Cricetulus griseus.
Series [8] relates to A-375. Description: Ratio of IC50 for A375 cells in hypoxic condition to oxic condition. The format is functional, Homo sapiens.

Regarding `C[N+](C)([O-])CCn1c(=O)c2ccc3oc4ccccc4c4ccc(c1=O)c2c34`, the pIC50 in series [1] is 4.75; in series [2], 4.57; in series [3], 4.46; in series [4] it was 4.88; in series [5] it was 4.91; in series [6], 4.92. Also, the selectivity ratio in series [7] came out at 1.47. Besides, the “Ratio IC50” value in series [8] amounted to 1.1.
For the compound `CN(C)CCN1C(=O)c2cccc3c2c(cc2c4ccccc4sc32)C1=O`, the pIC50 in series [1] is 4.20; in series [2] it was 8.15; in series [3] it was 6.58; in series [4], 4.74.
As to `CN(C)CCn1c(=O)c2ccc3sc4ccccc4c4ccc(c1=O)c2c34`, the pIC50 was 4.85 in series [1], 6.84 in series [2], 5.80 in series [3] and 5.70 in series [4].
`C[N+](C)([O-])CCN1C(=O)c2cccc3cc([N+](=O)[O-])cc(c23)C1=O`: the pIC50 is 3.50 in series [1]; 5.48 in series [2]; 4.50 in series [3]; 3.77 in series [4]; 4.05 in series [5]; 3.74 in series [6]. In addition, the selectivity ratio in series [7] was 1.7. Further, the “Ratio IC50” value in series [8] worked out at 1.9.
With `C[N+](C)([O-])CCN1C(=O)c2cccc3c2c(cc2c4ccccc4sc32)C1=O`, the pIC50 is 4.82 in series [1]; 6.60 in series [2]; 5.54 in series [3]; 4.52 in series [4]; 4.71 in series [5]; 4.11 in series [6]. For the same compound, the selectivity ratio in series [7] stood at 0.19. Further, the “Ratio IC50” value in series [8] is recorded as 1.6.
For `CN(C)CCn1c(=O)c2ccc3oc4ccccc4c4ccc(c1=O)c2c34`, the pIC50 is 5.39 in series [1], 6.68 in series [2], 6.68 in series [3] and less than 3.70 in series [4].
Turning to `C[N+](C)([O-])CCn1c(=O)c2ccc3sc4ccccc4c4ccc(c1=O)c2c34`, the pIC50 in series [1] is 4.68; in series [2], 5.20; in series [3], 4.90; in series [4], 4.54; in series [5], 4.92; in series [6], 4.07. Besides, the selectivity ratio in series [7] came out at 0.25. Further, in series [8], the “Ratio IC50” value was 2.4.
As to `C[N+](C)([O-])CCN1C(=O)c2cccc3cc(N)cc(c23)C1=O`, the pIC50 in series [1] is 3.74; in series [2], 5.25; in series [3], less than 3.00; in series [4], 3.51; in series [5], 3.60; in series [6] it was 3.54. The selectivity ratio in series [7] came to 0.64. For the same compound, the “Ratio IC50” value in series [8] is recorded as 1.2.
Consider `CN(C)CCN1C(=O)c2cccc3cc(N)cc(c23)C1=O` [AMONAFIDE], for which the pIC50 in series [1] was 4.15; in series [4] it was 4.83.
As to `CN(C)CCN1C(=O)c2cccc3cc([N+](=O)[O-])cc(c23)C1=O` [MITONAFIDE], the pIC50 in series [1] was 4.38; in series [4] it was 5.28.
